# Source: patent US4578400A, “Therapeutic composition and method for treatment of cardiovascular diseases” (priority 1982, dated 1986)
# System: ventricular fibrillation after coronary artery ligation
# Assay: Antiarrhythmic effects on myocardial infarction (coronary ligation)
# Assay type: in vivo, dogs
# Details: for Threshold level for inducing ventricular fibrillation, 30 min after ligation: before ligation = 100, control 41
# Excerpt: Antiarrhythmic effects on myocardial infarction
# The method described by Shinohara (Jap. Circul. J., 32, 1269-1281, 1968) was used. Dogs were divided into groups of 5 animals, anesthetized with intravenous pentobarbital and were thoracotomized under artificial respiration, and a platinum bipolar electrode was inserted on the wall of the right atrium. Then the sinus node was crushed and the animals were subjected to pacing (2.5 Hz, 3 msec, 3.5-8 V) with an electronic stimulator. The left anterior descending coronary artery was doubly ligated at a site 2 cm away from its origin (A. S. Harris, Circulation, 1, 1318, 1950). Then 5--HDA--Na and lidocaine were injected into the femoral vein of the respective dogs. Using an electrode inserted in an ischemic zone in the left ventricle, the animals were given 15 to 20 successive electrical shocks before the ligation and 30 minutes after the ligation and administration. The threshold level necessary for inducing ventricular fibrillation was determined for each group of animals and shown in Table 4, with the values before the ligation taken as 100.
structure (smiles),measurement,setting,value
CCCCCC(O)CCCC(=O)[O-].[Na+] (stereo not shown),"Threshold level for inducing ventricular fibrillation, 30 min after ligation",0.3 mg/kg i.v.,67
same,"Threshold level for inducing ventricular fibrillation, 30 min after ligation","1.0 mg/kg i.v., *P < 0.05",70
same,"Threshold level for inducing ventricular fibrillation, 30 min after ligation","3.0 mg/kg i.v., *P < 0.05",79
same,threshold level for inducing ventricular fibrillation (in words),"after coronary ligation, i.v.",increased in a dose-dependent manner
